From PubChem BioAssay AID1996
Values after ≈ are worked out from the molar mass of the structure shown.

Conditions: buffer; pH 7.4; 200.0 µM
A solubility kinetic of 23 µg/mL (≈ 69.4 µM) was found for `CSCCC(NC(=O)C1CCCCC1)c1nc2ccccc2[nH]1` (configuration not stated) in this work.
A solubility kinetic of 29.6 µg/mL (≈ 141 µM) was found for `CC(O)CNC12CC3CC(CC(C3)C1)C2` (configuration not stated) in this work.
A solubility kinetic greater than 36.2 µg/mL was found for `O=C(O)c1ccc(Cn2ccc3ccccc32)o1` in this work.
A solubility kinetic of 43.2 µg/mL (≈ 137 µM) was found for `CCC(=O)Nc1ccc2c(c1)nc(CCN1CCCCC1)n2C` in this work.
A solubility kinetic of 8.1 µg/mL (≈ 37.6 µM) was found for `CC(=O)N1c2ccccc2C(C)=CC1(C)C` in this work.
A solubility kinetic of 33.1 µg/mL (≈ 117 µM) was found for `CCOC(=O)c1cccc(NC(=O)c2ccccc2C)c1` in this work.
A solubility kinetic of 6.2 µg/mL (≈ 24 µM) was found for `Cc1cccc(NC(=S)NC2CC3C=CC2C3)c1` (configuration not stated) in this work.
A solubility kinetic greater than 48.2 µg/mL was found for `CC(C)On1c(SCC(=O)N(C)C)nc2ccccc2c1=O` in this work.
A solubility kinetic of 22.5 µg/mL (≈ 80.6 µM) was found for `Cc1ccc(/C(O)=C/c2nc3ccccc3oc2=O)cc1` in this work.
A solubility kinetic of 32.6 µg/mL (≈ 141 µM) was found for `CC(=O)c1ccc(NC(=O)C2CCCC2)cc1` in this work.
A solubility kinetic of 1 µg/mL (≈ 2.96 µM) was found for `COc1ccccc1/C=C/C(=O)Nc1ccc(N2CCOCC2)cc1` in this work.
A solubility kinetic of 2 µg/mL (≈ 6.75 µM) was found for `Cc1ccc(/C(N)=N/OC(=O)CCCc2ccccc2)cc1` in this work.
A solubility kinetic greater than 63.8 µg/mL was found for `CCOc1ccc(N(C(=O)c2cc3ccccc3oc2=O)C2C=CS(=O)(=O)C2)cc1` (configuration not stated) in this work.
A solubility kinetic of 43 µg/mL (≈ 144 µM) was found for `COc1ccccc1C(=O)NCCOc1ccc(C)c(C)c1` in this work.
A solubility kinetic of 2.3 µg/mL (≈ 5.55 µM) was found for `O=C(c1c(F)c(F)c(F)c(F)c1F)N1CCN(Cc2ccc3c(c2)OCO3)CC1` in this work.
A solubility kinetic of 20.3 µg/mL (≈ 52.5 µM) was found for `COc1ccc(C(=O)OCC(=O)c2ccc3[nH]c(=O)[nH]c3c2)c(OC)c1OC` in this work.
A solubility kinetic greater than 50.9 µg/mL was found for `COc1ccc(OC)c(CNC(=O)c2coc(=O)c3ccccc23)c1` in this work.
A solubility kinetic greater than 38 µg/mL was found for `CN1CC(=O)N(CC(=O)NC2CCCCC2)C1=O` in this work.
A solubility kinetic greater than 30.5 µg/mL was found for `CCNC(=S)NNC(=O)CC(C)C` in this work.
A solubility kinetic of 1.7 µg/mL (≈ 5.76 µM) was found for `CC(C)(C)c1csc(Sc2ncccc2[N+](=O)[O-])n1` in this work.
A solubility kinetic of less than 0.7 µg/mL was found for `COc1ccc(CNC(=O)c2cc(=O)c3cc(C)c(C)cc3o2)cc1` in this work.
A solubility kinetic of less than 0.2 µg/mL was found for `CC(=O)c1cc(C#N)c(SCc2ccc([N+](=O)[O-])cc2)nc1C` in this work.
A solubility kinetic greater than 54.2 µg/mL was found for `COC(=O)[C@H](CCSC)NC(=O)Nc1cccc(Br)c1` in this work.
A solubility kinetic greater than 33.6 µg/mL was found for `CCOc1nc(C)cc(COC)c1C(N)=O` in this work.
A solubility kinetic of 48 µg/mL (≈ 149 µM) was found for `COc1ccccc1NS(=O)(=O)c1ccc2c(c1)OCCO2` in this work.
A solubility kinetic of less than 0.4 µg/mL was found for `CCSC1=N/C(=C\c2ccccc2)C(=O)N1c1ccc(OC)cc1` in this work.
A solubility kinetic greater than 39.6 µg/mL was found for `Cc1cc(Sc2ncnc(N)c2[N+](=O)[O-])ncn1` in this work.
A solubility kinetic greater than 53.3 µg/mL was found for `CN(C(=O)COC(=O)c1cncc(Br)c1)C1CCCCC1` in this work.
A solubility kinetic of 0.9 µg/mL (≈ 3.29 µM) was found for `O=C(O/N=C1/CCCc2occc21)c1ccc(F)cc1` in this work.
A solubility kinetic greater than 49.4 µg/mL was found for `O=C(Cc1ccccc1)NCC(=O)OCC(=O)c1ccc(F)cc1` in this work.
A solubility kinetic greater than 33.9 µg/mL was found for `COc1ccc(OC)c([N+](=O)[O-])c1C(N)=O` in this work.
A solubility kinetic greater than 47.7 µg/mL was found for `CC(=O)C1=C(O)C(=O)N(c2nccs2)C1c1ccccc1F` (configuration not stated) in this work.
A solubility kinetic greater than 43.2 µg/mL was found for `O=C(NCc1cccnc1)c1nn2cccnc2c1Cl` in this work.
A solubility kinetic of 0.7 µg/mL (≈ 2.36 µM) was found for `COc1ccc(C)cc1NC(=O)Nc1ccc2c(c1)CCC2` in this work.
A solubility kinetic greater than 47.9 µg/mL was found for `Cn1c(SCC(=O)Nc2sccc2C#N)nnc1C1CC1` in this work.
A solubility kinetic greater than 43.4 µg/mL was found for `COC(=O)c1ccc(COc2ccc(NC(C)=O)cc2)o1` in this work.
A solubility kinetic greater than 49.7 µg/mL was found for `O=C(O)CN1C(=O)C(=O)N(Cc2ccc(Cl)cc2Cl)C1=O` in this work.
A solubility kinetic greater than 40.6 µg/mL was found for `O=C1OC(CCl)CN1Cc1ccc([N+](=O)[O-])cc1` (configuration not stated) in this work.
A solubility kinetic of 4.2 µg/mL (≈ 18.6 µM) was found for `CC(=O)Nc1ccc(NC=C(C#N)C#N)cc1` in this work.
A solubility kinetic of 1.7 µg/mL (≈ 5.84 µM) was found for `COC(=O)CSc1nc2cc3c(cc2cc1C)OCO3` in this work.
A solubility kinetic greater than 37.8 µg/mL was found for `Cc1cc(C)c(N2C(=O)CCCC2=O)c(Cl)c1` in this work.
A solubility kinetic greater than 47.5 µg/mL was found for `COc1ccc(CCNC(=O)COC(=O)c2cccn2C)cc1` in this work.
A solubility kinetic of less than 0.5 µg/mL was found for `Cc1cccc2c1NC1(CCCC1)CC2C.Cl` (configuration not stated) in this work.
A solubility kinetic of 22.1 µg/mL (≈ 63.8 µM) was found for `COc1ccc(OC)c(/C=C2\SC(N3CCCC(C)C3)=NC2=O)c1` (configuration not stated) in this work.
A solubility kinetic greater than 47.5 µg/mL was found for `CC(C)(C)C(=O)COC(=O)C1=NN(c2ccccc2)C(=O)CC1` in this work.
A solubility kinetic greater than 41.2 µg/mL was found for `O=C(NC1CC1)[C@@H]1CSC2c3ccccc3C(=O)N21` (some centres not stated) in this work.
A solubility kinetic of 1.8 µg/mL (≈ 5.84 µM) was found for `O=C(CN1C(=O)c2cccc3cccc1c23)NC1CCCCC1` in this work.
A solubility kinetic greater than 48 µg/mL was found for `CCOC(=O)C(C)Oc1ccc(NC(=O)C(Cl)Cl)cc1` (configuration not stated) in this work.
A solubility kinetic greater than 50 µg/mL was found for `Cc1ccc(S(=O)(=O)N2CC(C(=O)O)Oc3ccccc32)cc1` (configuration not stated) in this work.
A solubility kinetic greater than 49.6 µg/mL was found for `O=C(/C=C/c1cccc([N+](=O)[O-])c1)N1CC[C@@]2(O)CCCC[C@H]2C1` in this work.
A solubility kinetic of 2.2 µg/mL (≈ 7.85 µM) was found for `CCSc1nc2sc3c(c2c(=O)n1CC)CCC3` in this work.
A solubility kinetic of 8.1 µg/mL (≈ 23.4 µM) was found for `COc1cccc(C(=O)CC(=O)C(=O)Nc2ccc(C)cc2Cl)c1` in this work.
A solubility kinetic greater than 32.3 µg/mL was found for `Cc1cccc(C(=O)NCc2ccco2)c1` in this work.
A solubility kinetic of less than 0.2 µg/mL was found for `CC(C)c1nc2sc3c(=O)[nH]cnc3c2c2c1CCCC2` in this work.
A solubility kinetic greater than 46.5 µg/mL was found for `O=[N+]([O-])c1cccc(S(=O)(=O)NCCCn2ccnc2)c1` in this work.
A solubility kinetic of 39 µg/mL (≈ 141 µM) was found for `COc1ccc(C(O)Cn2cc([N+](=O)[O-])nc2C)cc1` (configuration not stated) in this work.
A solubility kinetic of 0.9 µg/mL (≈ 2.74 µM) was found for `O=C(Nc1ccc(NC(=O)c2cccs2)cc1)c1cccs1` in this work.
A solubility kinetic of 3.6 µg/mL (≈ 10.4 µM) was found for `O=C(COC(=O)c1cccc(Cl)c1)NC(=O)NCc1ccccc1` in this work.
A solubility kinetic of 16.7 µg/mL (≈ 52 µM) was found for `O=C(NC12CC3CC(CC(C3)C1)C2)c1cccc(OC(F)F)c1` in this work.
A solubility kinetic greater than 48.4 µg/mL was found for `Cc1ccc(S(=O)(=O)NCCC2=CCCCC2)cc1C(N)=O` in this work.
A solubility kinetic of 17.4 µg/mL (≈ 51 µM) was found for `O=C(c1ccc([N+](=O)[O-])cc1)N1CCN=C1SCc1ccccc1` in this work.
A solubility kinetic of 9.8 µg/mL (≈ 41.8 µM) was found for `CSc1ccc(/C=C2\NC(=O)NC2=O)cc1` in this work.
A solubility kinetic of less than 0.6 µg/mL was found for `COC(=O)c1c(Sc2ccccc2)c2ccccc2n1C` in this work.
A solubility kinetic of less than 0.4 µg/mL was found for `COc1ccc(C(=O)Nc2ccccc2NC(=O)c2ccc(OC)cc2)cc1` in this work.
A solubility kinetic greater than 40.8 µg/mL was found for `O=C(NCc1ccccn1)Nc1cccc([N+](=O)[O-])c1` in this work.
A solubility kinetic of 49 µg/mL (≈ 147 µM) was found for `COc1ccc(N(CC2CO2)S(=O)(=O)c2ccc(C)cc2)cc1` (configuration not stated) in this work.
A solubility kinetic of less than 0.7 µg/mL was found for `O=C1Nc2c(ccc(Cl)c2Cl)C(=O)C1(F)c1ccccc1` (configuration not stated) in this work.
A solubility kinetic of 0.8 µg/mL (≈ 2.74 µM) was found for `C=CCSc1nc2sc3c(c2c(=O)n1CC)CCC3` in this work.
A solubility kinetic of 39.2 µg/mL (≈ 123 µM) was found for `Cc1ccc(NS(=O)(=O)c2cccc3nsnc23)cc1C` in this work.
A solubility kinetic of 1.2 µg/mL (≈ 4.05 µM) was found for `COC(=O)c1ccc2nc(-c3ccc4c(c3)OCO4)cn2c1` in this work.
A solubility kinetic greater than 31.5 µg/mL was found for `OC1NC(=S)N(c2ccccc2)C1O` (configuration not stated) in this work.
A solubility kinetic of 36.5 µg/mL (≈ 117 µM) was found for `Cc1csc(NC(=O)Cc2ccc(Br)cc2)n1` in this work.
A solubility kinetic greater than 44.8 µg/mL was found for `C=CCNC(=O)CN1CCC(c2nc3ccccc3[nH]2)CC1` in this work.
A solubility kinetic greater than 47.6 µg/mL was found for `O=C(CN1C(=O)CSc2ncccc21)Nc1ccccc1F` in this work.
A solubility kinetic of 1.9 µg/mL (≈ 5.81 µM) was found for `Brc1cc(Br)c2nc3c(cc2c1)CCC3` in this work.
A solubility kinetic greater than 46.7 µg/mL was found for `CC/C(O)=C1\C(=O)CCCC1=NCCc1nc2ccccc2[nH]1` in this work.
A solubility kinetic greater than 45 µg/mL was found for `CC(=O)N(c1cccc(Cl)c1)c1nc(C)cc(C)c1C#N` in this work.
A solubility kinetic of 0.6 µg/mL (≈ 1.91 µM) was found for `CC(=O)CCSc1ncnc2sc(-c3ccccc3)cc12` in this work.
A solubility kinetic of 14.3 µg/mL (≈ 24.6 µM) was found for `O=C(CN1C(=O)/C(=C2/SC(=S)N(CCS(=O)(=O)O)C2=O)c2ccccc21)Nc1cccc(Br)c1` in this work.
A solubility kinetic greater than 47.3 µg/mL was found for `C[C@@H](NC(=O)[C@@H]1Cc2ccccc2CN1)C(=O)NC1CCCC1` in this work.
A solubility kinetic greater than 43.2 µg/mL was found for `Cc1ccc(OCC(=O)NCCO)c(Br)c1` in this work.
A solubility kinetic greater than 27.8 µg/mL was found for `CC(C)(C)N1CC(C(=O)O)CC1=O` (configuration not stated) in this work.
A solubility kinetic greater than 50.8 µg/mL was found for `COC(=O)c1ccc(S(=O)(=O)NCc2ccc(OC)cc2)n1C` in this work.
A solubility kinetic of less than 0.8 µg/mL was found for `COc1ccc(-n2c(C)c(C(=O)O)c3cc(OC)c4ccccc4c32)cc1` in this work.
A solubility kinetic greater than 38.1 µg/mL was found for `COC(=O)C(C(=O)OC)c1ncccc1[N+](=O)[O-]` in this work.
A solubility kinetic greater than 36.3 µg/mL was found for `CC1CCc2cc(F)ccc2N1C(=O)CCl` (configuration not stated) in this work.
A solubility kinetic of 24.8 µg/mL (≈ 105 µM) was found for `CC(C)C1Cc2nc(Cl)c(C#N)cc2CO1` (configuration not stated) in this work.
